Assay results as given in patent publication US11000033B2, “Ketone or oxime compound, and herbicide” (NISSAN CHEMICAL CORPORATION, priority 2014, dated 2021).

Legend:
Format in all cases: in vivo
Monochoria vaginalis [1] = test: Test Example 2: herbicidal activity, application during weed generation in submerged conditions (symbol C); conditions: Table 23; application herbicide amount 320 g/ha; grade 0-5 by criteria of Test Example 1
Method: (§1) Herbicidal Activity Test by Application During Weed Generation in Submerged Conditions
(§2) After alluvial soil was placed into 1/10000 are of Wagner pot, water was poured and mixed to form a submerged condition having a water depth of 4 cm. Seeds of Echinochloa oryzacola Vasing., Scirpus juncoides, and Monochoria vaginalis were sowed in a mixed manner in the above pot and the pot was placed in the greenhouse of 25° C. to 30° C. to grow the plants. When Echinochloa oryzacola Vasing., Scirpus juncoides, and Monochoria vaginalis were grown to one leaf stage to two leaf stage, the emulsion agent of the compound of the present invention prepared in accordance with Formulation Example 2 was diluted with water so as to be a predetermined herbicide amount and the diluted emulsion agent was applied to the surface of the water. 3 weeks later from the herbicide application, the effect to each plant was investigated in accordance with the criteria of Test Example 1.

[2] = system: Echinochloa crus-galli var. crus-galli; test: Test Example 5: herbicidal effect by foliage application, plastic box (symbol H); conditions: 320 g/ha, 3 weeks after application
Procedure, shortened: (§3)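 Herbicide, formulated as an emulsion and diluted in water, is sprayed onto the aerial parts of 14-day seedlings. These were grown at 25° C. to 30° C. in sterilized diluvial soil; effects are graded after 3 weeks.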

soybean = test: Test Example 5: effect on crop by foliage application, plastic box (symbol d); conditions: 320 g/ha, 3 weeks after application
Procedure, shortened: (§4)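 Crop seed is sown alongside grass and broadleaf weed species in spots in sterilized diluvial soil, then covered to a depth of about 1.5 cm. Plants grow in a greenhouse kept at 25° C. to 30° C.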

Setaria viridis = test: Test Example 5: herbicidal effect by foliage application, plastic box (symbol G); conditions: 320 g/ha, 3 weeks after application
Procedure, shortened: as §3

Abutilon theophrasti = test: Test Example 5: herbicidal effect by foliage application, plastic box (symbol M); conditions: 320 g/ha, 3 weeks after application
Procedure, shortened: as §3

Monochoria vaginalis [3] = test: Test Example 1: herbicidal activity, application before weed generation in submerged conditions (symbol C); conditions: application herbicide amount 320 g/ha
Procedure, shortened: (§5)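 Greenhouse growth at 25–30 °C lasted 3 weeks after treatment, when each weed was graded 0–5 by herbicidal ratio. Treatment was a diluted emulsion applied to the water surface of 4 cm-submerged alluvial soil on the sowing day.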

Avena fatua = test: Test Example 5: herbicidal effect by foliage application, plastic box (symbol I); conditions: 320 g/ha, 3 weeks after application
Procedure, shortened: as §3

wheat = test: Test Example 5: effect on crop by foliage application, plastic box (symbol e); conditions: 320 g/ha, 3 weeks after application
Procedure, shortened: as §4

Scirpus juncoides [4] = test: Test Example 1: herbicidal activity, application before weed generation in submerged conditions (symbol B); conditions: application herbicide amount 320 g/ha
Procedure, shortened: as §5

beet = test: Test Example 5: effect on crop by foliage application, plastic box (symbol f); conditions: 320 g/ha, 3 weeks after application
Procedure, shortened: as §4

transplanted rice plant = test: Test Example 1: effect on crop, application before weed generation in submerged conditions (symbol a); conditions: application herbicide amount 320 g/ha
Procedure, shortened: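 Rice at 2.5 leaf stage transplanted into submerged soil (4 cm depth) sown with three weed species; herbicide applied before weed emergence.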

rice plant = test: Test Example 5: effect on crop by foliage application, plastic box (symbol b); conditions: 320 g/ha, 3 weeks after application
Procedure, shortened: as §4

corn = test: Test Example 5: effect on crop by foliage application, plastic box (symbol c); conditions: 320 g/ha, 3 weeks after application
Procedure, shortened: as §4

Scirpus juncoides [5] = test: Test Example 2: herbicidal activity, application during weed generation in submerged conditions (symbol B); conditions: Table 23; application herbicide amount 320 g/ha; grade 0-5 by criteria of Test Example 1
Method: as §1, §2

Alopecurus myosuroides = test: Test Example 5: herbicidal effect by foliage application, plastic box (symbol J); conditions: 320 g/ha, 3 weeks after application
Procedure, shortened: as §3

Lolium multiflorum Lam. = test: Test Example 5: herbicidal effect by foliage application, plastic box (symbol K); conditions: 320 g/ha, 3 weeks after application
Procedure, shortened: as §3

Leptochloa chinensis = test: Test Example 3: herbicidal effect by foliage application, Wagner pot (symbol D); conditions: application herbicide amount 320 g/ha
Procedure, shortened: (§6)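 Alluvial soil was flooded to a depth of 0.1–0.5 cm, seeded with the weeds and rice, and kept in a greenhouse at 25–30 °C. After 14 days of growth, the foliage received a small-sprayer application of emulsion diluted to the intended rate; injury was rated at 3 weeks.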

Apera spica-venti = test: Test Example 5: herbicidal effect by foliage application, plastic box (symbol L); conditions: 320 g/ha, 3 weeks after application
Procedure, shortened: as §3

Digitaria ciliaris = test: Test Example 5: herbicidal effect by foliage application, plastic box (symbol F); conditions: 320 g/ha, 3 weeks after application
Procedure, shortened: as §3

Stellaria media = test: Test Example 5: herbicidal effect by foliage application, plastic box (symbol P); conditions: 320 g/ha, 3 weeks after application
Procedure, shortened: as §3

Galium spurium = test: Test Example 5: herbicidal effect by foliage application, plastic box (symbol Q); conditions: 320 g/ha, 3 weeks after application
Procedure, shortened: as §3

[6] = system: Echinochloa oryzacola Vasing.; test: Test Example 1: herbicidal activity, application before weed generation in submerged conditions (symbol A); conditions: application herbicide amount 320 g/ha
Procedure, shortened: as §5

[7] = system: Echinochloa oryzacola Vasing.; test: Test Example 2: herbicidal activity, application during weed generation in submerged conditions (symbol A); conditions: Table 23; application herbicide amount 320 g/ha; grade 0-5 by criteria of Test Example 1
Method: as §1, §2

[8] = system: Echinochloa crus-galli var. crus-galli; test: Test Example 3: herbicidal effect by foliage application, Wagner pot (symbol H); conditions: application herbicide amount 320 g/ha
Procedure, shortened: as §6

Chenopodium album = test: Test Example 5: herbicidal effect by foliage application, plastic box (symbol O); conditions: 320 g/ha, 3 weeks after application
Procedure, shortened: as §3

Veronica persica = test: Test Example 5: herbicidal effect by foliage application, plastic box (symbol R); conditions: 320 g/ha, 3 weeks after application
Procedure, shortened: as §3

rapeseed = test: Test Example 5: effect on crop by foliage application, plastic box (symbol g); conditions: 320 g/ha, 3 weeks after application
Procedure, shortened: as §4

[9] = system: directly sowed rice plant; test: Test Example 3: effect on crop by foliage application, Wagner pot (symbol b); conditions: application herbicide amount 320 g/ha
Procedure, shortened: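 Greenhouse culture at 25–30 °C of seeded rice, Cyperus difformis, Leptochloa chinensis and Echinochloa crus-galli var. crus-galli, in alluvial soil held under 0.1–0.5 cm of water in a Wagner pot.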

Amaranthus retroflexus = test: Test Example 5: herbicidal effect by foliage application, plastic box (symbol N); conditions: 320 g/ha, 3 weeks after application
Procedure, shortened: as §3

In the case of `CON=C(C)CC1CC(OCC(Cl)=CCl)=C(c2c(C)cc(C)cc2C)C1=O` (stereo not shown) [1-166], the “Herbicidal effect grade, C: Monochoria vaginalis” value (“Herbicidal effect grade, C” below) (Monochoria vaginalis [1]) was 0 (Herbicidal ratio of 5% or lower (almost no effect)), the “H: Echinochloa crus-galli var. crus-galli, herbicidal effect grade” value [2] was 4 (Herbicidal ratio of 70% or higher and lower than 90%) and the “d: soybean, effect on crop grade” value (soybean) was 1 (Herbicidal ratio of 5% or higher and lower than 20%). The “G: Setaria viridis, herbicidal effect grade” value (Setaria viridis) was 1 (Herbicidal ratio of 5% or higher and lower than 20%), the “M: Abutilon theophrasti, herbicidal effect grade” value (Abutilon theophrasti) was 3 (Herbicidal ratio of 40% or higher and lower than 70%) and the “Herbicidal effect grade, C” value (Monochoria vaginalis [3]) was 0 (Herbicidal ratio of 5% or lower (almost no effect)). For the same molecule, the “I: Avena fatua, herbicidal effect grade” value (Avena fatua) was 5 (Herbicidal ratio of 90% or more (almost completely withered)), the “e: wheat, effect on crop grade” value (wheat) was 1 (Herbicidal ratio of 5% or higher and lower than 20%) and the “Herbicidal effect grade, B: Scirpus juncoides” value (shortened to “Herbicidal effect grade, B”) (Scirpus juncoides [4]) was 0 (Herbicidal ratio of 5% or lower (almost no effect)). For the same molecule, the “f: beet, effect on crop grade” value (beet) was 0 (Herbicidal ratio of 5% or lower (almost no effect)), the “Effect grade on crop, a: transplanted rice plant” value (transplanted rice plant) was 0 (Herbicidal ratio of 5% or lower (almost no effect)) and the “b: directly sowed rice plant, effect on crop grade” value (rice plant) was 3 (Herbicidal ratio of 40% or higher and lower than 70%). The “c: corn, effect on crop grade” value (corn) was 1 (Herbicidal ratio of 5% or higher and lower than 20%), the “Herbicidal effect grade, B” value (Scirpus juncoides [5]) was 0 (Herbicidal ratio of 5% or lower (almost no effect)) and the “J: Alopecurus myosuroides, herbicidal effect grade” value (Alopecurus myosuroides) was 4 (Herbicidal ratio of 70% or higher and lower than 90%). For the same molecule, the “K: Lolium multiflorum Lam., herbicidal effect grade” value (Lolium multiflorum Lam.) was 5 (Herbicidal ratio of 90% or more (almost completely withered)), the “herbicidal effect on D (Leptochloa chinensis), grade 0-5” value (Leptochloa chinensis) was 4 (Herbicidal ratio of 70% or higher and lower than 90%) and the “L: Apera spica-venti, herbicidal effect grade” value (Apera spica-venti) was 5 (Herbicidal ratio of 90% or more (almost completely withered)). For the same molecule, the “F: Digitaria ciliaris, herbicidal effect grade” value (Digitaria ciliaris) was 1 (Herbicidal ratio of 5% or higher and lower than 20%), the “P: Stellaria media, herbicidal effect grade” value (Stellaria media) was 0 (Herbicidal ratio of 5% or lower (almost no effect)) and the “Q: Galium spurium, herbicidal effect grade” value (Galium spurium) was 0 (Herbicidal ratio of 5% or lower (almost no effect)). The “Herbicidal effect grade, A: Echinochloa oryzacola Vasing.” value [6] was 5 (Herbicidal ratio of 90% or more (almost completely withered)), the “Herbicidal effect grade, A: Echinochloa oryzacola Vasing.” value [7] was 3 (Herbicidal ratio of 40% or higher and lower than 70%) and the “herbicidal effect on H (Echinochloa crus-galli var. crus-galli), grade 0-5” value [8] was 4 (Herbicidal ratio of 70% or higher and lower than 90%). The “O: Chenopodium album, herbicidal effect grade” value (Chenopodium album) was 0 (Herbicidal ratio of 5% or lower (almost no effect)), the “R: Veronica persica, herbicidal effect grade” value (Veronica persica) was 0 (Herbicidal ratio of 5% or lower (almost no effect)) and the “g: rapeseed, effect on crop grade” value (rapeseed) was 4 (Herbicidal ratio of 70% or higher and lower than 90%). The “effect on crop b (directly sowed rice plant), grade 0-5” value [9] was 3 (Herbicidal ratio of 40% or higher and lower than 70%) and the “N: Amaranthus retroflexus, herbicidal effect grade” value (Amaranthus retroflexus) was 0 (Herbicidal ratio of 5% or lower (almost no effect)).
`CC(CC1CC(O)=C(c2c(C)cc(C)cc2C)C1=O)=NOCc1c(F)cccc1Cl` (stereo not shown) [1-115] was tested, and the “Herbicidal effect grade, C” value (Monochoria vaginalis [1]) was 0 (Herbicidal ratio of 5% or lower (almost no effect)), the “H: Echinochloa crus-galli var. crus-galli, herbicidal effect (criteria 0-5)” value [2] was 1 (Herbicidal ratio of 5% or higher and lower than 20%) and the “d: soybean, effect on crop (criteria 0-5)” value (soybean) was 0 (Herbicidal ratio of 5% or lower (almost no effect)). The “G: Setaria viridis, herbicidal effect (criteria 0-5)” value (Setaria viridis) was 1 (Herbicidal ratio of 5% or higher and lower than 20%), the “M: Abutilon theophrasti, herbicidal effect (criteria 0-5)” value (Abutilon theophrasti) was 0 (Herbicidal ratio of 5% or lower (almost no effect)) and the “Herbicidal effect grade, C” value (Monochoria vaginalis [3]) was 4 (Herbicidal ratio of 70% or higher and lower than 90%). The “I: Avena fatua, herbicidal effect (criteria 0-5)” value (Avena fatua) was 2 (Herbicidal ratio of 20% or higher and lower than 40%), the “e: wheat, effect on crop (criteria 0-5)” value (wheat) was 0 (Herbicidal ratio of 5% or lower (almost no effect)) and the “Herbicidal effect grade, B” value (Scirpus juncoides [4]) was 3 (Herbicidal ratio of 40% or higher and lower than 70%). For the same molecule, the “f: beet, effect on crop (criteria 0-5)” value (beet) was 0 (Herbicidal ratio of 5% or lower (almost no effect)), the “Effect grade on crop, a: transplanted rice plant” value (transplanted rice plant) was 1 (Herbicidal ratio of 5% or higher and lower than 20%) and the “b: directly sowed rice plant, effect on crop (criteria 0-5)” value (rice plant) was 1 (Herbicidal ratio of 5% or higher and lower than 20%). For the same molecule, the “c: corn, effect on crop (criteria 0-5)” value (corn) was 0 (Herbicidal ratio of 5% or lower (almost no effect)), the “Herbicidal effect grade, B” value (Scirpus juncoides [5]) was 2 (Herbicidal ratio of 20% or higher and lower than 40%) and the “J: Alopecurus myosuroides, herbicidal effect (criteria 0-5)” value (Alopecurus myosuroides) was 3 (Herbicidal ratio of 40% or higher and lower than 70%). For the same molecule, the “K: Lolium multiflorum Lam., herbicidal effect (criteria 0-5)” value (Lolium multiflorum Lam.) was 3 (Herbicidal ratio of 40% or higher and lower than 70%), the “L: Apera spica-venti, herbicidal effect (criteria 0-5)” value (Apera spica-venti) was 4 (Herbicidal ratio of 70% or higher and lower than 90%) and the “F: Digitaria ciliaris, herbicidal effect (criteria 0-5)” value (Digitaria ciliaris) was 2 (Herbicidal ratio of 20% or higher and lower than 40%). For the same molecule, the “P: Stellaria media, herbicidal effect (criteria 0-5)” value (Stellaria media) was 1 (Herbicidal ratio of 5% or higher and lower than 20%), the “Q: Galium spurium, herbicidal effect (criteria 0-5)” value (Galium spurium) was 0 (Herbicidal ratio of 5% or lower (almost no effect)) and the “Herbicidal effect grade, A: Echinochloa oryzacola Vasing.” value [6] was 5 (Herbicidal ratio of 90% or more (almost completely withered)). The “Herbicidal effect grade, A: Echinochloa oryzacola Vasing.” value [7] was 3 (Herbicidal ratio of 40% or higher and lower than 70%), the “O: Chenopodium album, herbicidal effect (criteria 0-5)” value (Chenopodium album) was 0 (Herbicidal ratio of 5% or lower (almost no effect)) and the “R: Veronica persica, herbicidal effect (criteria 0-5)” value (Veronica persica) was 1 (Herbicidal ratio of 5% or higher and lower than 20%). For the same molecule, the “g: rapeseed, effect on crop (criteria 0-5)” value (rapeseed) was 5 (Herbicidal ratio of 90% or more (almost completely withered)) and the “N: Amaranthus retroflexus, herbicidal effect (criteria 0-5)” value (Amaranthus retroflexus) was 0 (Herbicidal ratio of 5% or lower (almost no effect)).
